Experimental data: patent publication US20230142338A1, “THIOPHENYL DERIVATIVES USEFUL FOR MODULATING NUCLEIC ACID SPLICING” (REMIX THERAPEUTICS INC., priority 2020, published 2023)
Where a name gives a salt, the structure may show the parent alone.

Assays:
Type in all cases: cell-based
[1] = test system: HTT AJ mRNA; assay: Splicing assay (RT-qPCR): increase in HTT alternative junction (AJ) mRNA; settings: A673 or K562 cells, 24 hours treatment; concentration having 50% response in AJ mRNA increase
Method: (§1) Compounds described herein were used to modulate RNA transcript abundance in cells. The expression of a target mRNA was measured by detecting the formation of an exon-exon junction in the canonical transcript (CJ). A compound mediated exon-inclusion event was detected by observing an increase in formation of a new junction with an alternative exon (AJ). Real-time qPCR assays were used to detect these splicing switches and interrogate the potency of various compounds towards different target genes. A high-throughput real time quantitative PCR (RT-qPCR) assay was developed to measure these two isoforms of the mRNA (CJ and AJ) for an exemplary gene, HTT, together with a control housekeeping gene, GAPDH or GUSB or PPIA, used for normalization. Briefly, the A673 or K562 cell line was treated with various compounds described herein (e.g., compounds of Formula (I)). After treatment, the levels of the HTT mRNA targets were determined from each sample of cell lysate by cDNA synthesis followed by qPCR.
(§2) The A673 cell line was cultured in DMEM with 10% FBS. Cells were diluted with full growth media and plated in a 96-well plate (15,000 cells in 100 ul media per well). The plate was incubated at 37° C. with 5% CO2 for 24 hours to allow cells to adhere. An 11-point 3-fold serial dilution of the compounds was made in DMSO then diluted in media in an intermediate plate. Compounds were transferred from the intermediate plate to the cell plate with the top dose at a final concentration of 10 uM in the well. Final DMSO concentration was kept at or below 0.25%. The cell plate was returned to the incubator at 37° C. with 5% CO2 for an additional 24 hours.
(§3) The K562 cell line was cultured in IMDM with 10% FBS. For K562, cells were diluted with full growth media and plated in either a 96-well plate (50,000 cells in 50 uL media per well) or a 384-well plate (8,000-40,000 cells in 45 uL media per well). An 11-point 3-fold serial dilution of the compounds were made in DMSO then diluted in media in an intermediate plate. Compound was transferred from the intermediate plate to the cell plate with the top dose at a final concentration of 10 uM in the well. Final DMSO concentration was kept at or below 0.25%. Final volume was 100 uL for 96-well plate and 50 uL for 384-well plate. The cell plate was then placed in an incubator at 37° C. with 5% CO2 for 24 hours.
(§4) The cells were then gently washed with 50 uL-100 uL cold PBS before proceeding to addition of lysis buffer. 30 uL-50 uL of room temperature lysis buffer with DNAse I (and optionally RNAsin) was added to each well. Cells were shaken/mixed thoroughly at room temperature for 5-10 minutes for lysis to take place and then 3 uL-5 uL of room temperature stop solution was added and wells were shaken/mixed again. After 2-5 minutes, the cell lysate plate was transferred to ice for RT-qPCR reaction setup. The lysates could also be frozen at −80° C. for later use.
(§5) In some cases, a direct lysis buffer was used. An appropriate volume of 3× lysis buffer (10 mM Tris, 150 mM NaCl, 1.5%-2.5% Igepal and 0.1-1 U/uL RNAsin, pH 7.4) was directly added to either K562 or A673 cells in media and mixed by pipetting 3 times. The plates were then incubated at room temperature with shaking/rocking for 20-50 minutes to allow for lysis to take place. After this time, the cell lysate plate was transferred to ice to set up for the RT-qPCR reactions. The lysates could also be frozen at −80° C. for later use.
(§6) To set up 10 uL RT-qPCR reactions, cell lysates were transferred to 384-well qPCR plates containing the master mix according to the table below. The plates were sealed, gently vortexed, and spun down before the run. The volumes were adjusted accordingly in some instances where the reaction was carried in 20 uL. The table below summarizes the components of the RT-qPCR reactions:
(§7) The RT-qPCR reaction was performed using a QuantStudio (ThermoFisher) under the following fast cycling conditions. […]

[2] = test system: SMN2 CJ mRNA; assay: Gene panel canonical junction qPCR assay: SMN2; settings: Table 3, concentration having 50% response in CJ decrease, read-out: SMN2 IC50 (decrease in CJ mRNA levels)
Method: as §1, §2, §3, §4, §5, §6, §7

[3] = test system: HTT CJ mRNA; assay: Splicing assay (RT-qPCR): decrease in HTT canonical junction (CJ) mRNA; settings: A673 or K562 cells, 24 hours treatment; concentration having 50% response in CJ mRNA decrease
Method: as §1, §2, §3, §4, §5, §6, §7

[4] = test system: Target C CJ mRNA; assay: Gene panel canonical junction qPCR assay: Target C; settings: Table 3, concentration having 50% response in CJ decrease, read-out: Target C IC50 (decrease in CJ mRNA levels)
Method: as §1, §2, §3, §4, §5, §6, §7

[5] = test system: HTT CJ mRNA; assay: Gene panel canonical junction qPCR assay: HTT; settings: Table 3, concentration having 50% response in CJ decrease, read-out: HTT IC50 (decrease in CJ mRNA levels)
Method: as §1, §2, §3, §4, §5, §6, §7

SMILES | AC50 [1] | IC50 [2] | AC50 [3] | IC50 [4] | IC50 [5]
Cc1cn2cc(NC(=O)c3sc(N4CCNC5(CC5)C4)cc3F)cc(F)c2n1 [Compound 132, 5-[4,7-diazaspiro[2.5]octan-7-yl]-3-fluoro-N-[8-fluoro-2-methylimidazo[1,2-a]pyridin-6-yl]thiophene-2-carboxamide] | > 10000 nM | 1000 to 10000 nM | > 10000 nM | > 10 nM | > 10 nM
Cc1cn2cc(NC(=O)c3sc([C@@H]4CCN[C@H](C)C4)cc3F)cc(C(F)(F)F)c2n1 [Compound 196, 3-fluoro-N-[2-methyl-8-(trifluoromethyl)imidazo[1,2-a]pyridin-6-yl]-5-[(cis-)-2-methylpiperidin-4-yl]thiophene-2-carboxamide] | > 10000 nM | 100 to 1000 nM | 1000 to 10000 nM | > 10 nM | 1000 to 10000 nM
COc1cc(N2CCNCC2=O)sc1C(=O)Nc1cc(F)c2nc(C)cn2c1 [Compound 189, N-[8-fluoro-2-methylimidazo[1,2-a]pyridin-6-yl]-3-methoxy-5-(2-oxopiperazin-1-yl)thiophene-2-carboxamide] | > 10000 nM | > 10 nM | > 10000 nM | > 10 nM | > 10 nM
Cc1cn2cc(NC(=O)c3sc(C4CCNCC4)cc3Cl)cc(F)c2n1 [Compound 190, 3-chloro-N-[8-fluoro-2-methylimidazo[1,2-a]pyridin-6-yl]-5-(piperidin-4-yl) thiophene-2-carboxamide] | 100 to 1000 nM | < 100 nM | < 100 nM | 1000 to 10000 nM | < 100 nM
Cc1cn2cc(NC(=O)c3sc(C4CCNCC4)cc3F)cc(Cl)c2n1 [Compound 181, N-[8-chloro-2-methylimidazo[1,2-a]pyridin-6-yl]-3-fluoro-5-(piperidin-4-yl)thiophene-2-carboxamide] | 100 to 1000 nM | < 100 nM | 100 to 1000 nM | 1000 to 10000 nM | 100 to 1000 nM
Cc1cn2cc(NC(=O)c3sc(N(C)C4CC(C)(C)NC(C)(C)C4)cc3F)cc(F)c2n1 [Compound 149, 3-fluoro-N-[8-fluoro-2-methylimidazo[1,2-a]pyridin-6-yl]-5-[methyl(2,2,6,6-tetramethylpiperidin-4-yl)amino]thiophene-2-carboxamide] | > 10000 nM | 100 to 1000 nM | > 10000 nM | > 10 nM | > 10 nM
Cc1cn2cc(NC(=O)c3sc([C@H]4CCN[C@H](C)C4)cc3F)cc(C(F)(F)F)c2n1 [Compound 197, 3-fluoro-N-[2-methyl-8-(trifluoromethyl)imidazo[1,2-a]pyridin-6-yl]-5-[(trans-)-2-methylpiperidin-4-yl]thiophene-2-carboxamide] | 1000 to 10000 nM | 100 to 1000 nM | 1000 to 10000 nM | > 10 nM | 1000 to 10000 nM
Cc1cn2nc(NC(=O)c3sc(N4CCNC(C)C4)cc3F)nc2c(C)n1 (stereo not drawn) [Compound 169, hydrochloride] | > 10000 nM | > 10 nM | > 10000 nM | > 10 nM | > 10 nM
Cc1cn2cc(NC(=O)c3sc(C4CCNCC4)cc3F)nc2c(C)n1 [Compound 195, N-[6,8-dimethylimidazo[1,2-a]pyrazin-2-yl]-3-fluoro-5-(piperidin-4-yl)thiophene-2-carboxamide] | 1000 to 10000 nM | < 100 nM | 100 to 1000 nM | > 10 nM | 100 to 1000 nM
Cc1cn2cc(NC(=O)c3sc(N4CC(C)(C)NC(C)(C)C4)cc3F)cc(F)c2n1 [Compound 133, 3-fluoro-N-[8-fluoro-2-methylimidazo[1,2-a]pyridin-6-yl]-5-(3,3,5,5-tetramethylpiperazin-1-yl)thiophene-2-carboxamide] | > 10000 nM | 1000 to 10000 nM | > 10000 nM | > 10 nM | > 10 nM
Cc1cn2cc(NC(=O)c3sc(N4CCC(NC(C)(C)C)CC4)cc3F)cc(F)c2n1 [Compound 141, 5-[4-(tert-butylamino)piperidin-1-yl]-3-fluoro-N-[8-fluoro-2-methylimidazo[1,2-a]pyridin-6-yl]thiophene-2-carboxamide] | > 10000 nM | 1000 to 10000 nM | > 10000 nM | > 10 nM | > 10 nM
Cc1cn2cc(NC(=O)c3cc(F)c(C4CCNCC4)s3)cc(F)c2n1 [Compound 188, 4-fluoro-N-[8-fluoro-2-methylimidazo[1,2-a]pyridin-6-yl]-5-(piperidin-4-yl)thiophene-2-carboxamide] | > 10000 nM | 100 to 1000 nM | 100 to 1000 nM | > 10 nM | 100 to 1000 nM
Cc1cn2cc(NC(=O)c3sc([C@H]4CCN[C@H](C)C4)cc3F)cc(F)c2n1 [Compound 117, 3-fluoro-N-[8-fluoro-2-methylimidazo[1,2-a]pyridin-6-yl]-5-[(2R,4S)-2-methylpiperidin-4-yl]thiophene-2-carboxamide] | 1000 to 10000 nM | 100 to 1000 nM | 100 to 1000 nM | 1000 to 10000 nM | 100 to 1000 nM
Cc1cn2nc(NC(=O)c3sc([C@@H]4CCN[C@@H](C)C4)cc3F)cc(C)c2n1 [Compound 104, N-[2,8-dimethylimidazo[1,2-b]pyridazin-6-yl]-3-fluoro-5-[(2S,4R)-2-methylpiperidin-4-yl]thiophene-2-carboxamide] | 100 to 1000 nM | < 100 nM | < 100 nM | 100 to 1000 nM | < 100 nM
Cc1cn2cc(NC(=O)c3sc(N4C[C@H]5CC[C@@H](C4)N5)cc3F)cc(F)c2n1 [Compound 143, 5-[(1R,5S)-3,8-diazabicyclo[3.2.1]octan-3-yl]-3-fluoro-N-[8-fluoro-2-methylimidazo[1,2-a]pyridin-6-yl]thiophene-2-carboxamide] | > 10000 nM | 1000 to 10000 nM | > 10000 nM | 1000 to 10000 nM | > 10 nM
Cc1cn2cc(NC(=O)c3ccc(C4CCNCC4)s3)cc(F)c2n1 [Compound 174, N-[8-fluoro-2-methylimidazo[1,2-a]pyridin-6-yl]-5-(piperidin-4-yl) thiophene-2-carboxamide] | 1000 to 10000 nM | 100 to 1000 nM | 1000 to 10000 nM | 1000 to 10000 nM | 100 to 1000 nM
Cc1cn2cc(NC(=O)c3sc([C@@H]4CCN[C@@H](C)C4)cc3F)cc(F)c2n1 [Compound 116, 3-fluoro-N-[8-fluoro-2-methylimidazo[1,2-a]pyridin-6-yl]-5-[(2S,4R)-2-methylpiperidin-4-yl]thiophene-2-carboxamide] | 100 to 1000 nM | < 100 nM | 100 to 1000 nM | 1000 to 10000 nM | 100 to 1000 nM
Cn1cc2ccc(NC(=O)c3sc(C4CCNCC4)cc3F)cc2n1 [Compound 182, 3-fluoro-N-(2-methylindazol-6-yl)-5-(piperidin-4-yl)thiophene-2-carboxamide] | > 10000 nM | > 10 nM | > 10000 nM | > 10 nM | > 10 nM
